According to patent US9957230B2, “Synergistic compositions” (Cadila Healthcare Limited, priority 2013, dated 2018):
“And” between values parts separate entries of the source, which are not always exact repeats. Equal entries are not always repeated. Structures can show the parent of a compound that is named as a salt.

Experiments:
Format in all cases: in vivo
db/db mice [1] = assay: Antidiabetic activity in db/db mice (studies I and II): non-fasting serum glucose; conditions: Compound (Ia) 0.1 mg/kg; for Serum Glucose (mg/dl) Day 0: Day 0 (pretreatment); for Serum Glucose (mg/dl) Day 12: Day 12, non-fasting; for % Change Vs control: serum glucose day 12 vs vehicle control; for % Change Day 12 vs Day 0: serum glucose
From the text: The in-vivo efficacy for antidiabetic activity was done for (I) and (II) individually with db/db mice of 13-14 weeks of age.
8. […] 8. The treatment was given oral gavages once daily for 14 days. […]

db/db mice [2] = assay: Oral glucose tolerance test in db/db mice (studies I and II); conditions: Compound (Ia) 0.1 mg/kg; for AUC Glucose: OGTT day 14, fasting, glucose load 2 gm/kg; for % improvement in AUC glucose vs control: OGTT after 14 days of treatment
From the text: 8. […] 8. The treatment was given oral gavages once daily for 14 days.
(§1) The OGTT procedure followed is as given below—

[3] = system: high fat high cholesterol fed Syrian golden hamster; assay: Lipid lowering effects with Rosuvastatin Calcium in HF-HC fructose diet Syrian golden hamsters (study III); conditions: Compound (Ia) 3 mg/kg
From the text: (§2) The in-vivo efficacy was done in high fat high cholesterol fed Syrian golden hamster. It is an excellent model to investigate hepatic assembly and secretion of lipoprotein since its lipoprotein metabolism closely resembles that of humans as they have cholesteryl ester transfer protein (CETP) as like human. Feeding high fat high cholesterol diet to Syrian golden hamster causes hypercholesterolemia and hypertriglyceridemia which causes an increase in LDL levels and decrease in HDL-C/TC ratio.
In this experiment, 21 Syrian golden hamsters which were kept on high fat-high cholesterol (HF-HC) fructose diet were divided into 3 treatment groups and one group was on normal diet control which was NIN (National Institute of Nutrition, NIN diet) control, the treatment given was as per Table no. 1. NIN control and HF-HC fructose diet vehicle control groups were treated with vehicle (10% Polyethylene glycol (PEG) 400+90% of 0.5% methyl cellulose) and other three groups with treatment mentioned in Table no. 13. The treatment was given oral gavages once daily for 7 days.
Calculations of the % change in LDL-C levels, HDL-C and LDL-C/HDL-C ratio (Vs HF-HC fructose diet control) were performed using MS Excel.

db/db mice [4] = assay: Oral glucose tolerance test in db/db mice (study IV); conditions: Compound Ia 0.1 mg/kg, Vildagliptin 1 mg/kg, Metformin 100 mg/kg; for % improvement in AUC glucose vs control: Table 19 and text, OGTT after 14 days of treatment
From the text: 1. […] 17. The treatment was given oral gavages once daily for 14 days.
as §1

[5] = system: high fat high cholesterol fed Syrian golden hamster; assay: Lipid lowering effects with Atorvastatin in HF-HC fructose diet Syrian golden hamsters (study V)
From the text: as §2
In this experiment, 18 Syrian golden hamsters which were kept on high fat-high cholesterol (HF-HC) fructose diet were divided into 3 treatment groups and one group was on normal diet control which was NIN (National Institute of Nutrition, NIN diet) control, the treatment given was as per Table no. 1. […] 20. The treatment was given oral gavages once daily for 13 days.
Calculations of the % change in LDL-C levels, triglyceride and LDL-C/HDL-C ratio (Vs HF-HC fructose diet control) were performed using MS Excel.

db/db mice [6] = assay: Antidiabetic activity with Exenatide or Glimepiride in db/db mice (studies VII and VIII): non-fasting serum glucose; conditions: for Serum Glucose (mg/dl) Day 0: Day 0 (pretreatment), male and female db/db mice; for Serum Glucose (mg/dl) Day 6: Day 6, one hour after dose, non-fasting; for % Change Day 6 vs Day 0: serum glucose
From the text: The in-vivo efficacy for antidiabetic activity was done in male and female db/db mice of 12-16 weeks of age. Generally obese and diabetic animals are insulin resistant and have abnormalities in glucose and lipid metabolism. The development of diabetes and beta cell dysfunction in these animal models closely parallels the pathophysiology of the disease condition in humans. […] They progressively develop into insulinopenia with age, a feature commonly observed in last stage of type-2 diabetes, when blood sugar levels are insufficiently controlled. Therefore, this genetic model proves to be suitable for predicting the likely therapeutic benefit of novel euglycemic agents in human type-2 diabetes.
In this experiment, 49 db/db mice of 12-16 week were divided into 7 groups and as per their day 0 serum glucose levels. […] Detail treatments and routes of administrations were mentioned in Table no. 27. The treatment was given once daily for 7 days.
The blood was collected by retro-orbital sinus puncture method under light ether anesthesia on day 0 (pretreatment) and on day 6 (one hour after dose administration) for non-fasting glucose analysis and oral glucose tolerance test (OGTT) was performed on day 7 of the treatment in fasting condition. After blood collection serum was separated and analyzed glucose analysis using Spectra max and commercial diagnostic kits. The OGTT procedure followed is as given below—
The calculation for antidiabetic activity i.e. effect on serum glucose and improvement in glucose Area Under Curve (AUC) was calculated using the excel sheet and Graph Pad Prism software. The day-0 and day-6 glucose values of vehicle control and treatment were considered for calculating the effect on serum glucose. The effect on glucose AUC was calculated using the OGTT glucose levels at different time points and the improvement in glucose AUC were the reduction in glucose AUC after the treatment during OGTT.

[7] = Table 9, female db/db mice, Sitagliptin 3 mg/kg p.o. once daily
[8] = Table 9, Sitagliptin 3 mg/kg p.o. once daily
[9] = Table 11, female db/db mice, Metformin 150 mg/kg p.o. once daily
[10] = Table 11, Metformin 150 mg/kg p.o. once daily
[11] = Table 12, Metformin 150 mg/kg p.o.
[12] = HF-HC fructose diet hamsters, 7 days, Rosuvastatin calcium 0.3 mg/kg
[13] = HF-HC fructose diet hamsters, 13 days, Compound (Ia) 3 mg/kg, Atorvastatin 0.5 mg/kg
[14] = Table 23, LDL/HDL ratio, Day 13, Compound Ia 3 mg/kg, Atorvastatin 0.5 mg/kg
[15] = Table 28, Compound Ia 0.1 mg/kg p.o., Exenatide 0.1 μg/kg i.p. once daily
[16] = Table 30, Compound Ia 0.1 mg/kg, Glimepiride 2 mg/kg p.o. once daily

## CCO[C@@H](Cc1ccc(OCCn2c(C)ccc2-c2ccc(SC)cc2)cc1)C(=O)O [Compound (Ia), Benzenepropanoic acid, α-ethoxy-4-[2-[2-methyl-5-[4-(methylthio)phenyl]-1H -pyrrol-1-yl]ethoxy]-, magnesium salt]
db/db mice [1]; [7]
  Serum Glucose (mg/dl) Day 0: 407.8 ± 28.9 mg/dL
  Serum Glucose (mg/dl) Day 12: 276.9 ± 39.4 mg/dL
db/db mice [1]; [8]
  % Change Vs control: −32.8 ± 6.0%
  % Change Day 12 vs Day 0: −33.0 ± 5.9%
db/db mice [1]; [9]
  Serum Glucose (mg/dl) Day 0: 407.8 mg/dL
  Serum Glucose (mg/dl) Day 12: 276.9 mg/dL
db/db mice [1]; [10]
  % Change Vs control: −32.8%
  % Change Day 12 vs Day 0: −33.0%
db/db mice [1]; female db/db mice, Sitagliptin 3 mg/kg, Metformin 150 mg/kg
  reduction in serum glucose: 32.8%
db/db mice [2]; Table 10, Sitagliptin 3 mg/kg p.o.
  AUC Glucose: 51757.3 ± 3366.3 mg·min/dL
db/db mice [2]; Table 10 and text, Sitagliptin 3 mg/kg p.o.
  % improvement in AUC glucose vs control: 9% and 9.0 ± 5.9%
db/db mice [2]; [11]
  % improvement in AUC glucose vs control: 9%
  AUC Glucose: 51757.3 mg·min/dL
[3]; [12]
  reduction in LDL-C: 9.9%
  reduction in LDL-C/HDL-C ratio, atherogenic index: 4.9%
[3]; Table 14, Day 0 (pretreatment), HF-HC fructose diet hamsters, Rosuvastatin calcium 0.3 mg/kg oral once daily 7 days
  Serum LDL-C (mg/dl) Day 0: 114.8 mg/dL
[3]; Table 14, Day 7, Rosuvastatin calcium 0.3 mg/kg
  LDL-C % Change vs Day 0: 9.2%
[3]; Table 14, Day 7, HF-HC fructose diet hamsters, Rosuvastatin calcium 0.3 mg/kg oral once daily 7 days
  Serum LDL-C (mg/dl) Day 7: 123.7 mg/dL
[3]; Table 14, LDL-C, Day 7, Rosuvastatin calcium 0.3 mg/kg
  % Change vs HF-HC Fructose Control: −9.9%
[3]; Table 15, Day 0 (pretreatment), HF-HC fructose diet hamsters, Rosuvastatin calcium 0.3 mg/kg oral once daily 7 days
  Serum HDL-C (mg/dl) Day 0: 101.8 mg/dL
[3]; Table 15, Day 7, Rosuvastatin calcium 0.3 mg/kg
  HDL-C % Change vs Day 0: 9.8%
[3]; Table 15, Day 7, HF-HC fructose diet hamsters, Rosuvastatin calcium 0.3 mg/kg oral once daily 7 days
  Serum HDL-C (mg/dl) Day 7: 111.5 mg/dL
[3]; Table 16, Day 0 (pretreatment), HF-HC fructose diet hamsters, Rosuvastatin calcium 0.3 mg/kg
  Serum LDL-C/HDL-C Ratio Day 0: 1.13
[3]; Table 16, Day 7, Rosuvastatin calcium 0.3 mg/kg
  LDL/HDL % Change Vs Day 0: −0.3%
[3]; Table 16, Day 7, HF-HC fructose diet hamsters, Rosuvastatin calcium 0.3 mg/kg
  Serum LDL-C/HDL-C Ratio Day 7: 1.09
[3]; Table 16, LDL-C/HDL-C ratio, Day 7, Rosuvastatin calcium 0.3 mg/kg
  % Change vs HF-HC Fructose Control: −4.9%
db/db mice [4]; Table 19, OGTT day 14, fasting, glucose load 2 gm/kg
  AUC Glucose: 69613.3 mg·min/dL
db/db mice [4]
  % improvement in AUC glucose vs control: does no show any improvement
db/db mice [4]; listed as Compound Ia
  % improvement in AUC glucose vs control: −12.0%
[5]; [13]
  reduction in LDL-C: 14.8%
  reduction in LDL-C/HDL-C ratio, atherogenic index: does not showed any reduction
  reduction in triglyceride: 65.2%
[5]; Table 21, Day 0 (pretreatment), HF-HC fructose diet hamsters, Compound Ia 3 mg/kg, Atorvastatin 0.5 mg/kg oral once daily 13 days
  Serum LDL-C (mg/dl) Day 0: 75.1 mg/dL
[5]; Table 21, Day 13, Compound Ia 3 mg/kg, Atorvastatin 0.5 mg/kg
  LDL-C % Change vs Day 0: 0.1%
[5]; Table 21, Day 13, HF-HC fructose diet hamsters, Compound Ia 3 mg/kg, Atorvastatin 0.5 mg/kg oral once daily 13 days
  Serum LDL-C (mg/dl) Day 13: 73.1 mg/dL
[5]; Table 21, LDL-C, Day 13, Compound Ia 3 mg/kg, Atorvastatin 0.5 mg/kg
  % Change vs HF-HC Fructose Control: −14.8%
[5]; Table 22, Day 0 (pretreatment), HF-HC fructose diet hamsters, Compound Ia 3 mg/kg, Atorvastatin 0.5 mg/kg oral once daily 13 days
  Serum triglyceride (mg/dl) Day 0: 418.4 mg/dL
[5]; Table 22, Day 13, Compound Ia 3 mg/kg, Atorvastatin 0.5 mg/kg
  TG % Change vs Day 0: −64.0%
[5]; Table 22, Day 13, HF-HC fructose diet hamsters, Compound Ia 3 mg/kg, Atorvastatin 0.5 mg/kg oral once daily 13 days
  Serum triglyceride (mg/dl) Day 13: 149.5 mg/dL
[5]; Table 22, triglyceride, Day 13, Compound Ia 3 mg/kg, Atorvastatin 0.5 mg/kg
  % Change vs HF-HC Fructose Control: −65.2%
[5]; Table 23, Day 0 (pretreatment), HF-HC fructose diet hamsters, Compound Ia 3 mg/kg, Atorvastatin 0.5 mg/kg
  LDL/HDL RATIO Day 0: 0.79
[5]; Table 23, Day 13, HF-HC fructose diet hamsters, Compound Ia 3 mg/kg, Atorvastatin 0.5 mg/kg
  LDL/HDL RATIO Day 13: 0.82
[5]; [14]
  % Change vs HF-HC Fructose Control: 8.5%
  Change vs Day 0: 6.4
db/db mice [6]; [15]
  Serum Glucose (mg/dl) Day 0: 420.6 mg/dL
  Serum Glucose (mg/dl) Day 6: 363.4 mg/dL
db/db mice [6]; Table 28, serum glucose day 6 vs vehicle control (i.p. PBS or per oral vehicle), Compound Ia 0.1 mg/kg p.o., Exenatide 0.1 μg/kg i.p.
  % Change Vs control: −24.8%
db/db mice [6]; Table 28, Compound Ia 0.1 mg/kg p.o., Exenatide 0.1 μg/kg i.p.
  % Change Day 6 vs Day 0: −13.4%
db/db mice [6]; [16]
  Serum Glucose (mg/dl) Day 0: 420.6 mg/dL
  Serum Glucose (mg/dl) Day 6: 363.4 mg/dL
db/db mice [6]; Table 30, Compound Ia 0.1 mg/kg, Glimepiride 2 mg/kg p.o.
  % Change Day 6 vs Day 0: −13.4%
db/db mice [6]; Table 30 and text, serum glucose day 6 vs vehicle control, Compound Ia 0.1 mg/kg, Glimepiride 2 mg/kg p.o.
  % Change Vs control: −24.8%
db/db mice [6]; db/db mice, day 6, Compound Ia 0.1 mg/kg p.o., Exenatide 0.1 μg/kg i.p.
  reduction in serum glucose: 24.8%
